Data set [1] is described as follows: Accelerated stability of 60 L lot terameprocol/HPβCD samples. To be noted: 40° C/75% RH for 1 month; 60 L lots; no pH adjustment with/without homogenization, or pH 7 without homogenizer, with/without autoclaving. The class given is physicochemical. On the procedure: The 5 L terameprocol formulation process was scaled up to 60 L lots. The 60 L lots were conducted to (a) evaluate the criticality of using an homogenizer to promote complexation of the terameprocol and HPβCD (b) evaluate the stability of the terameprocol/HPβCD complex upon pH adjustment after compounding using NaOH and/or HCl (c) investigate the stability after autoclaving up to 30 minutes at 121° C. of the non pH adjusted, pH adjusted, homogenized, and non-homogenized terameprocol samples (d) optimize the 5 L formulation process to 60 L in order to support a clinical scale-up to 373 L.
It was determined that with proper tank design using an aggressive mixer introduced enough energy into the system where the homogenizer may not be critical for complexation. Samples of terameprocol that had 1) no pH adjustment with and without homogenization and 2) pH adjusted to 7 with no homogenizer and with and without autoclaving were stable at the accelerated condition of 40° C/75% RH for 1 month.

The nature of data set [2]: physchem. The class given is physicochemical. To be noted: organic solvent or mixture, thermodynamic from solid. How it is done: The solubility of terameprocol was tested in various solvents and dispersed systems. An excess of the solid API (20-50 mg) was shaken with 1 mL of a given solvent overnight (˜16 hr) at room temperature on a gyratory shaker at maximum speed. The samples were filtered through 0.45 μm PVDF filter. The filtrates were diluted to the working linear range (0.06-0.1 mg/mL) of the UV-Vis method appropriately in acetonitrile and analyzed for terameprocol concentration using a UV-Vis spectrophotometer. The equation of the standard curve was y=16.70x+0.016 with a R^2=0.999 monitored at 281 nm.
Solubility in PEG 300 increased with increasing temperature with the value being greater than 600 mg/mL at 95° C.

Data set [3] can be described thus: Stability of terameprocol/HPβCD 5 L formulation with NaCl and after autoclaving (precipitation). The class given is physicochemical. How it is done: The 5 L experiments were conducted to (a) explore the acceptable temperature range indicated in ‘b’ above required for forming terameprocol cyclodextrin complexes, (b) evaluate the stability of terameprocol/HPβCD upon autoclaving: 15 minutes vs. 30 minutes at 121° C., (c) evaluate the compatibility of terameprocol/HPβCD with 0.5% (w/v) sodium chloride (NaCl), and (d) develop a process which could be scaled to the next engineering size of 60 L. The acceptable temperature required for complexation of terameprocol and cyclodextrin (HPβCD) was determined to be above the melting point of terameprocol (>104° C.). The resulting terameprocol/HPβCD formulation was stable for 4 weeks at room temperature (RT), 4 weeks under refrigerated conditions, and 2 weeks under accelerated conditions (40° C.) for all sample types evaluated: non-autoclaved, autoclaved up to 30 minutes, and upon spiking with NaCl as shown in Table 2. The compatibility of terameprocol/HPβCD with NaCl supports flushing of the IV lines with 0.9% Saline to keep lines patent if required.

The nature of data set [4]: Determination of optimum temperature requirement (microscopic images of in-process samples). To be noted: for crystals in in-process sample (microscopic image): HPβCD solution, homogenized. The class given is physicochemical. How it is done:
A solution of HPβCD was prepared in a 5 L jacketed vessel and heated to aid in dissolution. Terameprocol was added slowly to the HPβCD solution. The in-line homogenizer was utilized and the temperature was maintained at 40° C. for 2 hours. […] The temperature was increased to 60° C. with homogenization and held for one hour. […] The temperature was increased to 80° C. under homogenization for 2 hours. It was noted that due to heating in a closed vessel, the system was slightly pressurized due to the increase in operating temperature. […] The experiment was repeated but the system was taken to temperature above the melting point (>104° C.) with homogenization in the same closed vessel. The vessel was then cooled and samples taken. […] It was concluded the optimum temperature requirement was that above the drug's melting point.

A short description of data set [5]: physchem. The class given is physicochemical. To be noted: water. On the procedure:
Terameprocol is an extremely difficult drug to formulate because it is effectively insoluble in all of the commonly used aqueous media used for intravenous delivery of pharmaceuticals. Terameprocol's solubility in an aqueous solvent, at all pH's in water, 0.9% saline and 5% dextrose is <0.01 mg/mL, a level below the limit of quantitation of the RP-HPLC assay used for evaluation. In order to develop a formulation suitable for clinical use, it is preferred that the solubility of the drug be equal to or exceed 5 mg/mL. At concentrations below this limit, large volumes of solvent are required to deliver the drug. The extremely low solubility of terameprocol presents major formulation challenges using conventional formulation techniques such as the use of organic solvents, surfactants or extremes of pH. These conventional formulation approaches would require the administration of large concentrations of co-solvents and may render the solution viscous and/or difficult to handle during reconstitution in the bedside or pharmacy. […] The use of conventional approaches have met with limited success when formulating terameprocol for intravenous parenteral administration.

The nature of data set [6]: Chemical stability of terameprocol under stress (base, acid, heat, light, oxidizer, water). Format: physicochemical. To be noted: subjected to base, oxidizer, and water. From the text: Terameprocol is a small molecule with a molecular weight of 358.5 g/mol; it is hydrophobic, and non-ionic.
Data set [7] is described as follows: Achievable terameprocol concentration in HPβCD formulations without co-solvent (bench-scale development). Format: physicochemical. On the procedure:
The inventors of the present invention have made the surprising discovery that terameprocol can be formulated in cyclodextrins without the need for elaborate chemical solvent matrices and that lead to increases in the solubility of water insoluble drugs through the formation of a stable inclusion complex. […] Details of this will be discussed later.
Bench-top (10 mL) to 5 L scale development studies were performed to remove PEG 300 from terameprocol/HPβCD formulations. Conclusions from the bench scale experiments were (a) 7 mg/mL is the maximum achievable terameprocol concentration in an IV formulation containing 30-40% HPβCD (b) incorporating the drug at high temperatures (80° C. or greater) is an important step in forming the inclusion complex (c) high mechanical energy must be provided when cooling the complex to approximately ambient condition once formed. There were differences in equipment used at the 10 mL vs. 5 L scale. The 10 mL scale utilized glass beakers with a sonicator for incorporation, while the 5 L experiments were conducted with a 10 L stainless steel jacketed vessel equipped with a recirculating heating bath, overhead air powered blade mixer and an in-line homogenizer.

The conditions of data set [8]: cited from earlier work.
Where [9] appears, read: 0.5% w/v NaCl, autoclaved 15 min at 121° C.
Setting [10] is: 0.5% w/v NaCl, autoclaved 30 min at 121° C.
[11] abbreviates: Unspiked, autoclaved 15 min at 121° C.
Where [12] appears, read: Unspiked, autoclaved 30 min at 121° C.

Converted amounts (≈) assume the structure as drawn. Like-named read-outs stand apart in the source and are kept apart here.

A word on the solubility: it is the concentration that dissolves in the medium under given conditions.

As to `COc1ccc(C[C@@H](C)[C@@H](C)Cc2ccc(OC)c(OC)c2)cc1OC` [terameprocol, tetra-o-methyl nordihydroguaiaretic acid], the formulation stability result in data set [1] is “stable”. Also, the solubility at 16 h in data set [2] (25 °C, solubility in pharmaceutically relevant solvents) was under 10 mg/mL. For the same compound, the solubility in data set [2] (40 °C) is 10.1 mg/mL (≈ 28.2 mM); in data set [2] (80 °C) it was over 400 mg/mL; in data set [2] (95 °C), over 600 mg/mL; in data set [5], under 0.01 mg/mL. In addition, the “Precipitation 2-8° C. (4-weeks)” value in data set [3] (setting [9]) was “No”; in data set [3] (setting [10]) it was “No”; in data set [3] (0.5% w/v NaCl, not autoclaved), “No”; in data set [3] (setting [11]), “No”; in data set [3] (setting [12]), “No”; in data set [3] (Unspiked, not autoclaved), “No”. The “Precipitation 40° C. (2-weeks)” value in data set [3] (setting [9]) was “No”; in data set [3] (setting [10]), “No”; in data set [3] (0.5% w/v NaCl, not autoclaved), “No”; in data set [3] (setting [11]), “No”; in data set [3] (setting [12]) it was “No”; in data set [3] (Unspiked, not autoclaved) it was “No”. In addition, the “Precipitation RT (4-weeks)” value in data set [3] (setting [9]) is reported as “No”; in data set [3] (setting [10]), “No”; in data set [3] (0.5% w/v NaCl, not autoclaved), “No”; in data set [3] (setting [11]) it was “No”; in data set [3] (setting [12]) it was “No”; in data set [3] (Unspiked, not autoclaved) it was “No”. Moreover, the “Terameprocol” value in data set [3] (setting [9]) amounted to 6.03 mg/mL; in data set [3] (setting [10]), 5.77 mg/mL; in data set [3] (0.5% w/v NaCl, not autoclaved), 5.89 mg/mL; in data set [3] (setting [11]), 5.76 mg/mL; in data set [3] (setting [12]), 5.97 mg/mL; in data set [3] (Unspiked, not autoclaved), 5.80 mg/mL. Moreover, the “crystals in in-process sample (microscopic image)” value in data set [4] (40° C. for 2 hours (FIG. 6-A)) was “numerous terameprocol crystals present”; in data set [4] (60° C. for one hour (FIG. 6-B)) it was “presence of crystals was still evident”; in data set [4] (80° C. for 2 hours (FIG. 6-C)) it was “significant reduction in crystal formation”. Moreover, in data set [4] (processed above the melting point (>104° C.) with homogenization, immediately or after 4 weeks), the crystal formation entry is on record as “no crystal formation”. The stability / degradation result in data set [6] was “does not degrade”. The “maximum achievable terameprocol concentration” value in data set [7] (IV formulation containing 30-40% HPβCD, no PEG 300, bench scale) came out at 7 mg/mL. For the same compound, in data set [7] (all temperatures below the melting point, or precipitation), the “concentration obtained on mixing with cyclodextrin in water without solvent” value was at most 7000 µg/mL.
Turning to `CC(O)COC[C@H]1O[C@@H]2O[C@H]3[C@H](O)[C@@H](O)[C@@H](O[C@H]4[C@H](O)[C@@H](O)[C@@H](O[C@H]5[C@H](O)[C@@H](O)[C@@H](O[C@H]6[C@H](O)[C@@H](O)[C@@H](O[C@H]7[C@H](O)[C@@H](O)[C@@H](O[C@H]8[C@H](O)[C@@H](O)[C@@H](O[C@H]1[C@H](O)[C@H]2O)O[C@@H]8COCC(C)O)O[C@@H]7COCC(C)O)O[C@@H]6COCC(C)O)O[C@@H]5COCC(C)O)O[C@@H]4COCC(C)O)O[C@@H]3COCC(C)O` (stereo partly drawn) [HPβCD, hydroxypropyl beta-cyclodextrin], the stability during sterilization entry in data set [8] (121° C. for 15 minutes) is “stable”. Besides, the hydrolysis result is listed as “slight hydrolysis” in data set [8] (extreme acidic conditions of pH 2 at 60° C.) and “No significant hydrolysis” in data set [8] (pH 4, at 40° C. after 24 hrs).
